“And” between values parts separate entries of the source, which are not always exact repeats. Equal values may be shown once. Toxic doses and inconclusive results are not listed. Cut-off read from the data, not from the text of the source: active = T/C of 150% or more; inactive = T/C below 125%.
System: L1210 leukemia ip in BDF1 mice, survival T/C
Assay: NCI In Vivo Anticancer Drug Screen. Data for tumor model L1210 Leukemia (intraperitoneal) in B6D2F1 (BDF1) mice
Conditions: endpoint: mean survival time, higher = longer survival
Outline: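 Antitumor effect is assessed in tumor-bearing animals. Survival in the compound arm is compared with a vehicle-dosed control arm and expressed as their quotient.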

[1] = dose: 100.0 mg/kg/injection, schedule: Q01DX001 (ip), vehicle: saline with Tween-80
[2] = dose: 100.0 mg/kg/injection, schedule: Q04DX003 (ip), vehicle: saline with Tween-80
[3] = dose: 200.0 mg/kg/injection, schedule: Q01DX001 (ip), vehicle: saline with Tween-80
[4] = dose: 200.0 mg/kg/injection, schedule: Q01DX009 (ip), vehicle: saline with Tween-80
[5] = dose: 200.0 mg/kg/injection, schedule: Q04DX003 (ip), vehicle: saline with Tween-80
[6] = dose: 400.0 mg/kg/injection, schedule: Q01DX001 (ip), vehicle: saline with Tween-80
[7] = dose: 400.0 mg/kg/injection, schedule: Q01DX009 (ip), vehicle: saline with Tween-80
[8] = dose: 400.0 mg/kg/injection, schedule: Q04DX003 (ip), vehicle: saline with Tween-80
[9] = dose: 100.0 mg/kg/injection, schedule: Q04DX003 (ip), vehicle: Klucel (hydroxypropylcellulose) (HPC)
[10] = dose: 100.0 mg/kg/injection, schedule: Q01DX009 (ip), vehicle: saline with Tween-80
[11] = dose: 50.0 mg/kg/injection, schedule: Q04DX003 (ip), vehicle: saline with Tween-80
[12] = dose: 100.0 mg/kg/injection, schedule: Q01DX001 (ip), vehicle: saline
[13] = dose: 200.0 mg/kg/injection, schedule: Q01DX001 (ip), vehicle: saline
[14] = dose: 400.0 mg/kg/injection, schedule: Q01DX001 (ip), vehicle: saline
[15] = dose: 12.5 mg/kg/injection, schedule: Q04DX002 (ip), vehicle: saline with Tween-80
[16] = dose: 25.0 mg/kg/injection, schedule: Q04DX002 (ip), vehicle: saline with Tween-80

Measured: T/C

CCc1ccccc1NC(=O)SCCSC(=O)Nc1ccccc1CC
inactive: dose: 25.0 mg/kg/injection, schedule: Q01DX009 (ip), vehicle: Klucel (hydroxypropylcellulose) (HPC) 91 % of control | dose: 50.0 mg/kg/injection, schedule: Q01DX009 (ip), vehicle: Klucel (hydroxypropylcellulose) (HPC) 102 % of control | dose: 100.0 mg/kg/injection, schedule: Q01DX009 (ip), vehicle: Klucel (hydroxypropylcellulose) (HPC) 96 % of control and 87 % of control | dose: 400.0 mg/kg/injection, schedule: Q01DX009 (ip), vehicle: Klucel (hydroxypropylcellulose) (HPC) 104 % of control

Cc1cc(Cl)ccc1NC(=O)Oc1cc(C)c(Cl)c(C)c1Cl
inactive: dose: 25.0 mg/kg/injection, schedule: Q01DX009 (ip), vehicle: saline with Tween-80 100 % of control and 90 % of control | dose: 50.0 mg/kg/injection, schedule: Q01DX009 (ip), vehicle: saline with Tween-80 95 % of control and 103 % of control | [1] 94 % of control | [2] 93 % of control and 109 % of control | [3] 97 % of control | [4] 97 % of control and 105 % of control | [5] 97 % of control and 108 % of control | [6] 101 % of control | [7] 90 % of control | [8] 103 % of control and 113 % of control

Cc1nonc1C(N)=O
inactive: dose: 100.0 mg/kg/injection, schedule: Q04DX002 (ip), vehicle: Klucel (hydroxypropylcellulose) (HPC) 109 % of control | dose: 200.0 mg/kg/injection, schedule: Q04DX002 (ip), vehicle: Klucel (hydroxypropylcellulose) (HPC) 102 % of control | dose: 400.0 mg/kg/injection, schedule: Q04DX002 (ip), vehicle: Klucel (hydroxypropylcellulose) (HPC) 95 % of control

CS(=O)(=O)OCCN(CCOS(C)(=O)=O)c1ccc(C=Nc2cc(Br)c(O)c(Br)c2)cc1
inactive: dose: 20.0 mg/kg/injection, schedule: Q04DX003 (ip), vehicle: Klucel (hydroxypropylcellulose) (HPC) 120 % of control | dose: 40.0 mg/kg/injection, schedule: Q04DX003 (ip), vehicle: Klucel (hydroxypropylcellulose) (HPC) 104 % of control | dose: 80.0 mg/kg/injection, schedule: Q04DX003 (ip), vehicle: Klucel (hydroxypropylcellulose) (HPC) 96 % of control | [9] 113 % of control

COc1cc(C=O)ccc1OC(=O)Nc1cc(Cl)ccc1C
inactive: [1] 92 % of control | [10] 94 % of control and 97 % of control | dose: 100.0 mg/kg/injection, schedule: Q04DX002 (ip), vehicle: saline with Tween-80 95 % of control and 88 % of control | [2] 97 % of control | [3] 88 % of control | [4] 106 % of control and 115 % of control | dose: 200.0 mg/kg/injection, schedule: Q04DX002 (ip), vehicle: saline with Tween-80 95 % of control and 98 % of control | [5] 95 % of control | [6] 97 % of control | [7] 105 % of control and 90 % of control | dose: 400.0 mg/kg/injection, schedule: Q04DX002 (ip), vehicle: saline with Tween-80 90 % of control and 91 % of control | [8] 103 % of control

Nc1cc(Cl)c2cccnc2c1O
inactive: [11] 88 % of control | dose: 75.0 mg/kg/injection, schedule: Q01DX001 (ip), vehicle: saline 98 % of control | [2] 100 % of control | dose: 150.0 mg/kg/injection, schedule: Q01DX001 (ip), vehicle: saline 96 % of control

O=Nc1c(N=O)c(N=O)c(N=O)c(N=O)c1N=O
inactive: dose: 1.0 mg/kg/injection, schedule: Q01DX015 (ip), vehicle: carboxymethylcellulose (CMC) 101 % of control | dose: 2.0 mg/kg/injection, schedule: Q01DX015 (ip), vehicle: carboxymethylcellulose (CMC) 92 % of control | dose: 4.0 mg/kg/injection, schedule: Q01DX015 (ip), vehicle: carboxymethylcellulose (CMC) 102 % of control | dose: 8.0 mg/kg/injection, schedule: Q01DX015 (ip), vehicle: carboxymethylcellulose (CMC) 91 % of control | dose: 25.0 mg/kg/injection, schedule: Q04DX003 (ip), vehicle: saline 101 % of control | dose: 50.0 mg/kg/injection, schedule: Q04DX003 (ip), vehicle: saline 90 % of control | [12] 107 % of control | dose: 100.0 mg/kg/injection, schedule: Q04DX003 (ip), vehicle: saline 90 % of control | [13] 100 % of control | [14] 100 % of control

CCOC(=O)N1C(=O)NC(=O)C1c1ccc(Cl)cc1 (centres undefined)
inactive: dose: 50.0 mg/kg/injection, schedule: Q01DX001 (ip), vehicle: saline 96 % of control | [12] 112 % of control | [13] 100 % of control

O=C(NCCF)NC1C(O)OC(CO)C(O)C1O (centres undefined)
inactive: [12] 102 % of control | [13] 101 % of control | [14] 98 % of control

C[n+]1ccc(/C=C/c2ccc(O)c3ccccc23)c2ccccc21
inactive: dose: 75.0 mg/kg/injection, schedule: Q01DX001 (ip), vehicle: carboxymethylcellulose (CMC) 100 % of control | dose: 150.0 mg/kg/injection, schedule: Q01DX001 (ip), vehicle: carboxymethylcellulose (CMC) 100 % of control | dose: 300.0 mg/kg/injection, schedule: Q01DX001 (ip), vehicle: carboxymethylcellulose (CMC) 115 % of control

COc1ccccc1C1OCC(C)(C)N1C (centres undefined)
inactive: [10] 101 % of control | [9] 97 % of control and 105 % of control | [4] 95 % of control | dose: 200.0 mg/kg/injection, schedule: Q04DX003 (ip), vehicle: Klucel (hydroxypropylcellulose) (HPC) 95 % of control | [7] 102 % of control | dose: 400.0 mg/kg/injection, schedule: Q04DX003 (ip), vehicle: Klucel (hydroxypropylcellulose) (HPC) 94 % of control and 93 % of control

Nc1cc([N+](=O)[O-])ccc1Nc1ccccc1
inactive: dose: 25.0 mg/kg/injection, schedule: Q01DX009 (ip), vehicle: DMSO 93 % of control | dose: 100.0 mg/kg/injection, schedule: Q04DX003 (ip), vehicle: DMSO 89 % of control

Oc1c(Br)cc(-c2ccccc2)cc1Br
inactive: dose: 100.0 mg/kg/injection, schedule: Q04DX002 (ip), vehicle: gum acacia 95 % of control | dose: 200.0 mg/kg/injection, schedule: Q04DX002 (ip), vehicle: gum acacia 95 % of control | dose: 400.0 mg/kg/injection, schedule: Q04DX002 (ip), vehicle: gum acacia 103 % of control

CN1CCN(c2ccc3nnc(Cl)n3n2)CC1
inactive: [11] 97 % of control

CCC1(C)CCC2(C)C(CCC3C2CCCC3(C)C(=O)O)C1 (centres undefined)
inactive: [15] 96 % of control | [16] 96 % of control | dose: 50.0 mg/kg/injection, schedule: Q04DX002 (ip), vehicle: saline with Tween-80 89 % of control

On1ccccc1=S
inactive: dose: 6.25 mg/kg/injection, schedule: Q04DX002 (ip), vehicle: saline with Tween-80 100 % of control | [15] 111 % of control | [16] 100 % of control

— PubChem BioAssay AID248 (DTP/NCI, 2004)
